Measurements reported in EP4800012A1, “COMPOUND ACTING AS PARP7 INHIBITOR” (Dovetree Medicines Unus, Inc., priority 2023, dated 2025).

Key:
PARP7 [1] = target: T1, PARP7 (Homo sapiens, UniProt Q7Z3E1); assay: Inhibition of the compound on PARP7 protein activity (ADP-ribosylation, chemiluminescence); format: biochemical; details: Histone H1 coated plate, Biotin-Labeled NAD+, 2 h at room temperature, chemiluminescence; read-out: PARP7 activity inhibition IC50
T1 construct: purchased BPS 80527
T1 sequence (Q7Z3E1 1-657): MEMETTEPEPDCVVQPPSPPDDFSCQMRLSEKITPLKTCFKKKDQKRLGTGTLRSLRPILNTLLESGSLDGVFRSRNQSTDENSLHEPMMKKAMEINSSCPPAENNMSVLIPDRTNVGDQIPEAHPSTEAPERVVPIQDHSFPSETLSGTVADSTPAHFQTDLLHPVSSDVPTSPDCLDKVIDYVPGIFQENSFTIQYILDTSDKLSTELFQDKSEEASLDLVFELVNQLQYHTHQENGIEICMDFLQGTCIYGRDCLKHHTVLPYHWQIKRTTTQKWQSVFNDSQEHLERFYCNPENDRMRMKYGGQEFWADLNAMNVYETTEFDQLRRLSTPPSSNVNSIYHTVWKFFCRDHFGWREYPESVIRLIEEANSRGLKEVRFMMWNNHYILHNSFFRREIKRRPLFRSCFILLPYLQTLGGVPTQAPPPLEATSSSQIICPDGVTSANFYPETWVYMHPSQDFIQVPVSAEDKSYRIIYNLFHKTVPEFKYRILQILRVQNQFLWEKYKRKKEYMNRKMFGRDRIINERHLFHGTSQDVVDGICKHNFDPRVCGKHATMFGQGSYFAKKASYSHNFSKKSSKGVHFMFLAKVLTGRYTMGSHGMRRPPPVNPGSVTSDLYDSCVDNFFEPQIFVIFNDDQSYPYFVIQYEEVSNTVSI

NCI-H1373 cells = assay: Inhibition on NCI-H1373 cell proliferation (Cell-Titer-Glo); format: cell-based; details: Homo sapiens, 144 h; NCI-H1373 cells, incubation for 6 days, Cell-Titer-Glo; read-out: NCI-H1373 cell proliferation inhibition IC50
PARP7 [2] = target: T1, PARP7; assay: PARP7 TR-FRET binding inhibition (displacement of probe RBN011147); details: TR-FRET, Biotin-labeled probe RBN011147; read-out: PARP7 binding inhibition IC50
Experimental: The ability of the compound to substitute the probe RBN011147 (Wigle et al., 2020, Cell Chemical Biology 27, 877-887) was tested by a TR-FRET method, and IC50 was calculated to evaluate the binding ability of the compound to PARP7. […]

PARP1 = PARP1 (Homo sapiens, UniProt P09874); assay: PARP1 in vitro enzyme activity inhibition (chemiluminescence assay); format: biochemical; details: 5 nM of PARP1 solution, method of test example 1; read-out: PARP1 activity inhibition IC50
PARP1, sequence (P09874 whole entry, species assumed): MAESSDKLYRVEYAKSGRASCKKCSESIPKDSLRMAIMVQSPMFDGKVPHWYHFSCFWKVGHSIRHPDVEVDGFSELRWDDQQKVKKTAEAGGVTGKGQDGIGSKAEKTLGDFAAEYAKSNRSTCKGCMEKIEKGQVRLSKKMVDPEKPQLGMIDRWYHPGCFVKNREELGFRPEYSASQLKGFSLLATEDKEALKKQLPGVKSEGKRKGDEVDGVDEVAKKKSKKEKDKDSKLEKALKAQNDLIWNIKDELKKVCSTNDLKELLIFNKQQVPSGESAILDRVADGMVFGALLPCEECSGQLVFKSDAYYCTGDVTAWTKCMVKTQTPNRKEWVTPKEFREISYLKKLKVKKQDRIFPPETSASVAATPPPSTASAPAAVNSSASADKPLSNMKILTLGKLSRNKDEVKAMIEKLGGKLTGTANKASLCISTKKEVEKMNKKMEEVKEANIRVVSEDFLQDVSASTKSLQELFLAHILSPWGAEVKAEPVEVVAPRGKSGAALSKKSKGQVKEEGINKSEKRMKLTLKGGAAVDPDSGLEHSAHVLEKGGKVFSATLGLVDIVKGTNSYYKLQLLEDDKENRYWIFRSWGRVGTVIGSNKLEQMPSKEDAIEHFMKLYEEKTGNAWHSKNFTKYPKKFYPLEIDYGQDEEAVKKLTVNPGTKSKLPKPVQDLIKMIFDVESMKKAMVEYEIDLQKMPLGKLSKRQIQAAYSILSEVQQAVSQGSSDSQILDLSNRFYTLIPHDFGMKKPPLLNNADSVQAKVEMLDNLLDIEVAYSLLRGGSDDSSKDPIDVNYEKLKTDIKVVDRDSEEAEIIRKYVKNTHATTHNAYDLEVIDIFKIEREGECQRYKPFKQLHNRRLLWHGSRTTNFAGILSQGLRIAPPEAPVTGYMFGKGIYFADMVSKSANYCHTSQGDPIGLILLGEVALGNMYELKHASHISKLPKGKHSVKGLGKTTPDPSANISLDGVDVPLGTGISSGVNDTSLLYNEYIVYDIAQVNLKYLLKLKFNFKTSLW
Experimental: (§1) Following the method in test example 1, the IC50 value of the inhibition of each compound on PARP7 activity were detected and obtained. Reference was made to the method in test example 1, except that the 6.25 nM of PARP7 solution in the ribosylation reaction step was replaced with a 5 nM of PARP1 solution or a 5 nM of PARP2. Similar to the 6.25 nM of PARP7 solution, the 5 nM of PARP1 solution and 5 nM of PARP2 solution were also formulated and obtained by using 1× Assay buffer.

PARP2 = PARP2 (Homo sapiens, UniProt Q9UGN5); assay: PARP2 in vitro enzyme activity inhibition (chemiluminescence assay); format: biochemical; details: 5 nM of PARP2, method of test example 1; read-out: PARP2 activity inhibition IC50
PARP2, sequence (Q9UGN5 whole entry, species assumed): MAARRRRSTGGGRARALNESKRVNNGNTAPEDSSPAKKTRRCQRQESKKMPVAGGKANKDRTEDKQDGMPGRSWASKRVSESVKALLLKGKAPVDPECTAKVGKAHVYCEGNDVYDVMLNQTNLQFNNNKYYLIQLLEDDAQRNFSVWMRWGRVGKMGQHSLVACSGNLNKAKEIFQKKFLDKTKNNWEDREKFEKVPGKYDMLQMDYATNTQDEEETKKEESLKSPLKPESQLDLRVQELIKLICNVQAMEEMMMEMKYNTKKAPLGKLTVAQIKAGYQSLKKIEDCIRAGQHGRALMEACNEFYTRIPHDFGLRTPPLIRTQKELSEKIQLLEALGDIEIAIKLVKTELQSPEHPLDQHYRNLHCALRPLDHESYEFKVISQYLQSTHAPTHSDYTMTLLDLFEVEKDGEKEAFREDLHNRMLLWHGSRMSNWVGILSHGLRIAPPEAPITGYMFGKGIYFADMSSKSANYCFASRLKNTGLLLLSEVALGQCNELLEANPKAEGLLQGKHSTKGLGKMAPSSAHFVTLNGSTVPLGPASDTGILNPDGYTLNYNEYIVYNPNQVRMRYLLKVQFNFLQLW
Experimental: as §1

PARP7 [3] = target: T1, PARP7; assay: PARP7 in vitro enzyme activity inhibition (chemiluminescence assay, selectivity test); format: biochemical; details: 6.25 nM of PARP7 solution, method of test example 1; read-out: PARP7 activity inhibition IC50
Experimental: as §1

| Structure (SMILES) | IC50 (PARP7 [1]) [nM] | IC50 (NCI-H1373 cells) [nM] | IC50 (PARP7 [2]) [nM] | IC50 (PARP1) [nM] | IC50 (PARP2) [nM] | IC50 (PARP7 [3]) [nM] |
| --- | --- | --- | --- | --- | --- | --- |
| CC(CCCNC(=O)c1cnc(-c2cc(C(F)(F)F)sn2)c(F)c1)Nc1cn[nH]c(=O)c1C(F)(F)F (stereo not drawn) [Example 205] | < 3 | 300 to 1000 | < 10 |  |  |  |
| CC(CCCNC(=O)c1ccc(-n2cc(C(F)(F)F)cn2)nc1)Nc1cn[nH]c(=O)c1C(F)(F)F (stereo not drawn) [Example 206] | < 3 | 1000 to 3000 | < 10 |  |  |  |
| CC(CCCNC(=O)c1ccc(-c2cc(C(F)(F)F)sn2)nc1)Nc1cn[nH]c(=O)c1C(F)(F)F (stereo not drawn) [Example 207] | < 3 | 1000 to 3000 | 10 to 30 |  |  |  |
| CC(CCCNC(=O)c1ccc(-c2ncc(C(F)(F)F)s2)cn1)Nc1cn[nH]c(=O)c1C(F)(F)F (stereo not drawn) [Example 209] | < 3 | < 300 | 10 to 30 |  |  |  |
| CC(CCCNC(=O)c1ccc(-c2ncc(C(F)(F)F)s2)nc1)Nc1cn[nH]c(=O)c1C(F)(F)F (stereo not drawn) [Example 211] | < 3 | 1000 to 3000 | < 10 |  |  |  |
| CC(CCCNC(=O)c1ccc(-c2cc(C(F)(F)F)sn2)cc1F)Nc1cn[nH]c(=O)c1C(F)(F)F (stereo not drawn) [Example 212] | < 3 | < 300 | < 10 |  |  |  |
| CC(C)(C)NC(=O)[C@@H](CCCNC(=O)c1ccc(-c2ncc(C(F)(F)F)s2)cc1)Nc1cn[nH]c(=O)c1C(F)(F)F [Example 221] | < 3 | < 300 | < 10 | > 100 | 3 to 10 | < 3 |
| O=C(NCCC[C@@H](Nc1cn[nH]c(=O)c1C(F)(F)F)C(=O)N1CC[C@@H](F)C1)c1ccc(-c2ncc(C(F)(F)F)s2)cc1 [Example 222] | < 3 | < 300 | < 10 | 10 to 30 | < 3 | < 3 |

Further lines, results first:

| IC50 (PARP7 [1]) [nM] | IC50 (NCI-H1373 cells) [nM] | IC50 (PARP7 [2]) [nM] | IC50 (PARP1) [nM] | IC50 (PARP2) [nM] | IC50 (PARP7 [3]) [nM] | Structure (SMILES) |
| --- | --- | --- | --- | --- | --- | --- |
| 3 to 10 | < 300 | < 10 | 3 to 10 | 30 to 100 | 3 to 10 | CN(C(=O)[C@@H](CCCNC(=O)c1ccc(-c2ncc(C(F)(F)F)s2)cc1)Nc1cn[nH]c(=O)c1C(F)(F)F)C1CC1 [Example 223] |
| < 3 | < 300 | < 10 | 3 to 10 | 10 to 30 | < 3 | O=C(NCCC[C@@H](Nc1cn[nH]c(=O)c1C(F)(F)F)C(=O)N1CC(Cl)C1)c1ccc(-c2ncc(C(F)(F)F)s2)cc1 [Example 224] |
| 3 to 10 | < 300 | < 10 | > 100 | 3 to 10 | 3 to 10 | O=C(NCCC[C@@H](Nc1cn[nH]c(=O)c1C(F)(F)F)C(=O)NC1CCC1)c1ccc(-c2ncc(C(F)(F)F)s2)cc1 [Example 228] |
| < 3 | < 300 | 10 to 30 | 30 to 100 | 10 to 30 | < 3 | CNC(=O)[C@@H](CCCNC(=O)c1ccc(-c2ncc(C(F)(F)F)s2)cc1)Nc1cn[nH]c(=O)c1C(F)(F)F [Example 229] |
| 3 to 10 | < 300 | 30 to 100 | 30 to 100 | 3 to 10 | 3 to 10 | CN(C(=O)[C@@H](CCCNC(=O)c1ccc(-c2ncc(C(F)(F)F)s2)cc1)Nc1cn[nH]c(=O)c1C(F)(F)F)C1CCC1 [Example 230] |
| 10 to 30 | > 3000 | > 100 |  |  |  | CC(CCCNC(=O)c1ccc(-c2cc(C(F)(F)F)nn2C)cc1)Nc1cn[nH]c(=O)c1C(F)(F)F (stereo not drawn) [Example 245] |
